# Tested on: 192522-019-R-J2-PDC complex tumor spheroid viability
# Assay: Anticancer human tumor 192522-019-R-J2-PDC patient-derived colon adenocarcinoma cell line growth inhibition [POLQ]
# Conditions: for IC50: curve of first compound; for viability, T/C: stronger effect = lower value
# Procedure, shortened: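 Complex spheroid viability model combining PDC tumour cells with endothelial (HUVEC) and MSC stromal cells. Novobiocin, ART-558 or RP6685 were tested singly and in combination with standard and investigational anticancer drugs. Each was titrated in half-log steps from near clinical Cmax, or from 10 microM where Cmax was unknown.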
# [1] = second compound 0.0316 µM, first compound 0.00316 µM
# [2] = second compound 0.0316 µM, first compound 0.01 µM
# [3] = second compound 0.0316 µM, first compound 0.0316 µM
# [4] = second compound 0.0316 µM, first compound 0.1 µM
# [5] = second compound 0.0316 µM, first compound 0.316 µM
# [6] = second compound 0.0316 µM, first compound 1 µM
# [7] = second compound 0.1 µM, first compound 0.00316 µM
# [8] = second compound 0.1 µM, first compound 0.01 µM
# [9] = second compound 0.1 µM, first compound 0.0316 µM
# [10] = second compound 0.1 µM, first compound 0.1 µM
# [11] = second compound 0.1 µM, first compound 0.316 µM
# [12] = second compound 0.1 µM, first compound 1 µM
# [13] = second compound 0.316 µM, first compound 0.00316 µM
# [14] = second compound 0.316 µM, first compound 0.01 µM
# [15] = second compound 0.316 µM, first compound 0.0316 µM
# [16] = second compound 0.316 µM, first compound 0.1 µM
# [17] = second compound 0.316 µM, first compound 0.316 µM
# [18] = second compound 0.316 µM, first compound 1 µM
# [19] = second compound 1 µM, first compound 0.00316 µM
# [20] = second compound 1 µM, first compound 0.01 µM
# [21] = second compound 1 µM, first compound 0.0316 µM
# [22] = second compound 1 µM, first compound 0.1 µM
# [23] = second compound 1 µM, first compound 0.316 µM
# [24] = second compound 1 µM, first compound 1 µM
# [25] = second compound 3.16 µM, first compound 0.00316 µM
# [26] = second compound 3.16 µM, first compound 0.01 µM
# [27] = second compound 3.16 µM, first compound 0.0316 µM
# [28] = second compound 3.16 µM, first compound 0.1 µM
# [29] = second compound 3.16 µM, first compound 0.316 µM
# [30] = second compound 3.16 µM, first compound 1 µM
# [31] = second compound 10 µM, first compound 0.00316 µM
# [32] = second compound 10 µM, first compound 0.01 µM
# [33] = second compound 10 µM, first compound 0.0316 µM
# [34] = second compound 10 µM, first compound 0.1 µM
# [35] = second compound 10 µM, first compound 0.316 µM
# [36] = second compound 10 µM, first compound 1 µM
# [37] = second compound 0.0316 µM, first compound 3.16 µM
# [38] = second compound 0.0316 µM, first compound 10 µM
# [39] = second compound 0.1 µM, first compound 3.16 µM
# [40] = second compound 0.1 µM, first compound 10 µM
# [41] = second compound 0.316 µM, first compound 3.16 µM
# [42] = second compound 0.316 µM, first compound 10 µM
# [43] = second compound 1 µM, first compound 3.16 µM
# [44] = second compound 1 µM, first compound 10 µM
# [45] = second compound 3.16 µM, first compound 3.16 µM
# [46] = second compound 3.16 µM, first compound 10 µM
# [47] = second compound 10 µM, first compound 3.16 µM
# [48] = second compound 10 µM, first compound 10 µM
# 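Further: spheroids exposed to drugs for seven days before reading.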
# 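Wherever viability, T/C is given: 100% = DMSO vehicle control viability in luminescence.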
compound,measurement,setting,value
C=CCn1c(=O)c2cnc(Nc3ccc(N4CCN(C)CC4)cc3)nc2n1-c1cccc(C(C)(C)O)n1 + COC1C(OC(N)=O)C(O)C(Oc2ccc3c(O)c(NC(=O)c4ccc(O)c(CC=C(C)C)c4)c(=O)oc3c2C)OC1(C)C,IC50,second compound 0.0316 µM,664 nM
same,IC50,second compound 0.1 µM,675 nM
same,IC50,second compound 0.316 µM,656 nM
same,IC50,second compound 1 µM,704 nM
same,IC50,second compound 3.16 µM,737 nM
same,IC50,second compound 10 µM,761 nM
same,"viability, T/C",[1],108%
same,"viability, T/C",[2],87.3%
same,"viability, T/C",[3],98.5%
same,"viability, T/C",[4],93.9%
same,"viability, T/C",[5],89.2%
same,"viability, T/C",[6],28.2%
same,"viability, T/C",[7],101%
same,"viability, T/C",[8],93.8%
same,"viability, T/C",[9],98%
same,"viability, T/C",[10],90.3%
same,"viability, T/C",[11],82.2%
same,"viability, T/C",[12],33.7%
same,"viability, T/C",[13],98.6%
same,"viability, T/C",[14],91.6%
same,"viability, T/C",[15],99.4%
same,"viability, T/C",[16],105%
same,"viability, T/C",[17],74.5%
same,"viability, T/C",[18],35.9%
same,"viability, T/C",[19],95.4%
same,"viability, T/C",[20],96.1%
same,"viability, T/C",[21],103%
same,"viability, T/C",[22],106%
same,"viability, T/C",[23],84.3%
same,"viability, T/C",[24],34.9%
same,"viability, T/C",[25],92.6%
same,"viability, T/C",[26],95.4%
same,"viability, T/C",[27],90.7%
same,"viability, T/C",[28],93.5%
same,"viability, T/C",[29],88%
same,"viability, T/C",[30],36.2%
same,"viability, T/C",[31],98.3%
same,"viability, T/C",[32],97.3%
same,"viability, T/C",[33],102%
same,"viability, T/C",[34],90%
same,"viability, T/C",[35],96.2%
same,"viability, T/C",[36],35.7%
CCc1c2c(nc3ccc(O)cc13)-c1cc3c(c(=O)n1C2)COC(=O)[C@]3(O)CC + COC1C(OC(N)=O)C(O)C(Oc2ccc3c(O)c(NC(=O)c4ccc(O)c(CC=C(C)C)c4)c(=O)oc3c2C)OC1(C)C,IC50,second compound 0.0316 µM,25.4 nM
same,IC50,second compound 0.1 µM,51.5 nM
same,IC50,second compound 0.316 µM,41.9 nM
same,IC50,second compound 1 µM,33.9 nM
same,IC50,second compound 3.16 µM,42.2 nM
same,IC50,second compound 10 µM,43.4 nM
same,"viability, T/C",[1],96.3%
same,"viability, T/C",[2],52.5%
same,"viability, T/C",[3],52.3%
same,"viability, T/C",[4],47%
same,"viability, T/C",[5],35.1%
same,"viability, T/C",[6],23.8%
same,"viability, T/C",[7],84%
same,"viability, T/C",[8],59%
same,"viability, T/C",[9],55.8%
same,"viability, T/C",[10],49.7%
same,"viability, T/C",[11],31.7%
same,"viability, T/C",[12],27.5%
same,"viability, T/C",[13],83.7%
same,"viability, T/C",[14],56%
same,"viability, T/C",[15],53.7%
same,"viability, T/C",[16],47.5%
same,"viability, T/C",[17],31.4%
same,"viability, T/C",[18],25.8%
same,"viability, T/C",[19],82%
same,"viability, T/C",[20],52.3%
same,"viability, T/C",[21],57.9%
same,"viability, T/C",[22],43.3%
same,"viability, T/C",[23],30.1%
same,"viability, T/C",[24],27.9%
same,"viability, T/C",[25],86.7%
same,"viability, T/C",[26],57.3%
same,"viability, T/C",[27],57.9%
same,"viability, T/C",[28],40.3%
same,"viability, T/C",[29],35.9%
same,"viability, T/C",[30],23.8%
same,"viability, T/C",[31],83.3%
same,"viability, T/C",[32],54.6%
same,"viability, T/C",[33],59.4%
same,"viability, T/C",[34],41.9%
same,"viability, T/C",[35],35.5%
same,"viability, T/C",[36],27.8%
Nc1ccn(C2OC(CO)C(O)C2(F)F)c(=O)n1 (stereo not drawn) + COC1C(OC(N)=O)C(O)C(Oc2ccc3c(O)c(NC(=O)c4ccc(O)c(CC=C(C)C)c4)c(=O)oc3c2C)OC1(C)C,IC50,second compound 0.0316 µM,> 10000 nM
same,IC50,second compound 0.1 µM,> 10000 nM
same,IC50,second compound 0.316 µM,> 10000 nM
same,IC50,second compound 1 µM,> 10000 nM
same,IC50,second compound 3.16 µM,> 10000 nM
same,IC50,second compound 10 µM,> 10000 nM
same,"viability, T/C",[3],98.8%
same,"viability, T/C",[4],72.9%
same,"viability, T/C",[5],75.7%
same,"viability, T/C",[6],63.5%
same,"viability, T/C",[37],66%
same,"viability, T/C",[38],53.9%
same,"viability, T/C",[9],95.6%
same,"viability, T/C",[10],80.1%
same,"viability, T/C",[11],76.5%
same,"viability, T/C",[12],66%
same,"viability, T/C",[39],58%
same,"viability, T/C",[40],57.3%
same,"viability, T/C",[15],90.2%
same,"viability, T/C",[16],79.7%
same,"viability, T/C",[17],72.6%
same,"viability, T/C",[18],62.4%
same,"viability, T/C",[41],60.3%
same,"viability, T/C",[42],59.5%
same,"viability, T/C",[21],86.1%
same,"viability, T/C",[22],84.9%
same,"viability, T/C",[23],73.9%
same,"viability, T/C",[24],72%
same,"viability, T/C",[43],56.2%
same,"viability, T/C",[44],58.4%
same,"viability, T/C",[27],91.9%
same,"viability, T/C",[28],87.3%
same,"viability, T/C",[29],74.8%
same,"viability, T/C",[30],62.9%
same,"viability, T/C",[45],62.6%
same,"viability, T/C",[46],53.5%
same,"viability, T/C",[33],95.8%
same,"viability, T/C",[34],89.4%
same,"viability, T/C",[35],75.7%
same,"viability, T/C",[36],65.1%
same,"viability, T/C",[47],66.9%
same,"viability, T/C",[48],58.7%
O=C(c1cc(Cc2n[nH]c(=O)c3ccccc23)ccc1F)N1CCN(C(=O)C2CC2)CC1 + COC1C(OC(N)=O)C(O)C(Oc2ccc3c(O)c(NC(=O)c4ccc(O)c(CC=C(C)C)c4)c(=O)oc3c2C)OC1(C)C,IC50,second compound 0.0316 µM,> 10000 nM
same,IC50,second compound 0.1 µM,> 10000 nM
same,IC50,second compound 0.316 µM,> 10000 nM
same,IC50,second compound 1 µM,> 10000 nM
same,IC50,second compound 3.16 µM,> 10000 nM
same,IC50,second compound 10 µM,> 10000 nM
same,"viability, T/C",[3],113%
same,"viability, T/C",[4],95.1%
same,"viability, T/C",[5],110%
same,"viability, T/C",[6],93%
same,"viability, T/C",[37],102%
same,"viability, T/C",[38],104%
same,"viability, T/C",[9],105%
same,"viability, T/C",[10],102%
same,"viability, T/C",[11],96.2%
same,"viability, T/C",[12],98.2%
same,"viability, T/C",[39],101%
same,"viability, T/C",[40],97.1%
same,"viability, T/C",[15],99%
same,"viability, T/C",[16],98.9%
same,"viability, T/C",[17],95.8%
same,"viability, T/C",[18],97%
same,"viability, T/C",[41],105%
same,"viability, T/C",[42],90.5%
same,"viability, T/C",[21],99.7%
same,"viability, T/C",[22],98.5%
same,"viability, T/C",[23],100%
same,"viability, T/C",[24],97.3%
same,"viability, T/C",[43],106%
same,"viability, T/C",[44],91.4%
same,"viability, T/C",[27],102%
same,"viability, T/C",[28],98.8%
same,"viability, T/C",[29],107%
same,"viability, T/C",[30],99.8%
same,"viability, T/C",[45],106%
same,"viability, T/C",[46],99.2%
same,"viability, T/C",[33],97.9%
same,"viability, T/C",[34],96.6%
same,"viability, T/C",[35],105%
same,"viability, T/C",[36],109%
same,"viability, T/C",[47],106%
same,"viability, T/C",[48],101%
